# Patent US11161830B2, “4-pyridone compound or salt thereof, and pharmaceutical composition and formulation including same” (priority 2017, dated 2021)
# Like-named read-outs stand apart in the source and are kept apart here.
# Tests used:
# Format in all cases: cell-based, hepatitis B virus
# HBV [1] = experiment: Test Example 1-2: anti-HBV assay in HepG2.2.15 cells (test solution 100 μL/well); settings: Hepatitis B virus, culture supernatant
# Description: (§1) Using HepG2.2.15 cells (Proc. Natl. Acad. Sci. USA, 84, 1005-1009, 1987) which have an HBV genome introduced into a hepatoblastoma cell line, HepG2, and persistently produce a virus, the anti-HBV activity of the representative compounds was evaluated in the following procedure.
# (§2) The following was used as a medium:
# (§3) DMEM/F-12, GlutaMAX (manufactured by Invitrogen)+5 μg/mL insulin (manufactured by Wako)+1% penicillin/streptomycin (manufactured by Sigma)+10 mmol/L HEPES (manufactured by Sigma)+50 μmol/L hydrocortisone (manufactured by Sigma)+10% FBS
# (§4) A mixture of a test compound with dimethyl sulfoxide (DMSO) was further added to the medium to obtain a final concentration of DMSO of 0.25% (v/v), and thus, test solutions containing the test compound at various concentrations were prepared. In addition, a test solution obtained by adding DMSO alone to the medium to obtain a final concentration of 0.25% (v/v) was prepared as a control without addition of a drug.
# (§5) (1) The HepG2.2.15 cells were suspended in the medium to prepare a. HepG2.2.15 cell suspension at 4×10^5 cells/mL. The suspension was seeded in a 96-well microtiter plate (100 μL/well) and the plate was incubated in a 5% CO2 incubator at 37° C. for 2 days.
# (§6) (2) The culture supernatant was removed and the cells were washed twice with PBS (−) (100 μL/well).
# (§7) (3) The test solution (200 μL/well) was added to the plate of (2) and the plate was incubated in a 5% CO2 incubator at 37° C. for 4 days.
# (§8) (4) The culture supernatant was removed, the test solution (200 μL/well) was added again to the plate, and the plate was incubated in a 5% CO2 incubator at 37° C. for 3 days.
# (§9) (5) The culture supernatant was collected and treated with a mixture of Buffer AL (manufactured by QIAGEN) and Proteinase K (manufactured by Invitrogen). The amount of DNA of HBV (HBV-DNA) in the obtained solution was absolutely quantified by a real-time PCR method. In addition, HBsAg (hepatitis B surface antigen) in the culture supernatant was absolutely quantified by chemiluminescent enzyme immunoassay using Lumipulse (registered trademark) HBsAg-HQ (manufactured by Fujirebio Inc.). The relative viral load (%) of a well with the compound added to a well without the compound added was calculated. An IC50 of the compound was calculated using a FORECAST function (linear regression method) of Microsoft Office Excel 2007 by plotting the logarithm of the concentration against the relative viral load as a real number.
# (§10) The IC50 of HBV-DNA was defined as a concentration (or a logarithm dilution of the culture supernatant) of the compound, in which the amount of HBV-DNA is reduced by 50% as compared a control without the compound added.
# (§11) In addition, the IC50 of HBsAg was defined as a concentration (or a logarithm dilution of the culture supernatant) of the compound, in which the amount of HBsAg is reduced by 50% as compared a control without the compound added.
# The test was performed by the same method as in Test Example 1-1 except that the amounts of the test solutions of (3) and (4) of Test Example 1-1 was changed to 100 μL/well.
# HBV [2] = experiment: Test Example 1-1: anti-HBV assay in HepG2.2.15 cells (test solution 200 μL/well); settings: culture supernatant
# Description: as §1, §2, §3, §4, §5, §6, §7, §8, §9, §10, §11
# HBV (genotype AeUS) = experiment: Test Example 2-1: anti-HBV assay in PXB-cells (fresh human hepatocytes); settings: PXB-cells infected with HBV genotype AeUS, culture supernatant on day 32 post infection
# Description: Using fresh human hepatocytes (PXB-cells, manufactured by PhenixBio Co., Ltd.) collected from a PXB mouse (a chimeric mouse with human hepatocytes), the anti-HBV activity of the representative compounds was evaluated in the following procedure.
# as §2
# DMEM (manufactured by Sigma)+0.25 μg/mL insulin (manufactured by Wako)+1% penicillin/streptomycin. (manufactured by Sigma)+20 mmol/L HEPES (manufactured by Sigma)+15 μg/mL L-proline (manufactured by Sigma)+50 nmol/L dexamethasone (manufactured by Sigma)+5 ng/mL EGF (manufactured by Peprotech)+0.1 mmol/L ascorbic acid 2-phosphate (manufactured by Wako)+10% FBS+2% DMSO
# Each of the test compounds) was further added to the medium to prepare a test solution containing each of the test compounds at various concentrations.
# (1) PXB-cells seeded at a seeding density of 2.1×10^5 cells/cm^2 in a 96-well microliter plate were incubated in a 5% CO2 incubator at 37° C. until a day on which the cells were infected.
# (2) HBV (genotype AeUS) derived from a PXB mouse serum was suspended in the medium containing 4% PEG-8000, and added to the plate of (1) at about 10 copies/cell such that the PXB cells were infected (100 μL/well), and the plate was incubated in a 5% CO2 incubator at 37° C. for 1 day.
# (3) The culture supernatant on day 1 post infection was removed and the cells were washed three times with DMEM containing 10% FBS and 1% penicillin/streptomycin. Then, the medium was added to the plate (100 μL/well) and the plate was incubated in a 5% CO2 incubator at 37° C. for 1 day.
# (4) The culture supernatant on day 2 post infection was removed and the cells were washed three times with DMEM containing 10% FBS and 1% penicillin/streptomycin. Then, the medium was added to the plate (100 μL/well) and the plate was incubated in a 5% CO2 incubator at 37° C. for 5 days.
# (5) The culture supernatant on day 7 post infection was removed, the medium was added to the plate (100 μL/well), and the plate was incubated in a 5% CO2 incubator at 37° C. for 5 days.
# (6) The culture supernatant on day 12 post infection was removed, the medium was added to the plate (100 μL/well), and the plate was incubated in a 5% CO2 incubator at 37° C. for 5 days.
# (§12) (7) The culture supernatant on day 17 post infection was removed, the test solution was added to the plate (100 μL/well), and the plate was incubated in a 5% CO2 incubator at 37° C. for 5 days. As a control without the compound added, the medium was added to the plate (100 μL/well) and the plate was incubated in a 5% CO2 incubator at 37° C. for 5 days.
# as §12, with “(8)” for “(7)”, “22” for “17”
# as §12, with “(9)” for “(7)”, “27” for “17”
# (10) The culture supernatant on day 32 post infection was collected.
# (11) The collected culture supernatant on day 32 post infection was purified with a QIAamp (registered trademark) DNA Blood Mini Kit (manufactured by QIAGEN). The amount of HBV-DNA in the obtained solution was absolutely quantified by a real-time PCR method. In addition, the amount of HBsAg in the culture supernatant was absolutely quantified by chemiluminescent enzyme immunoassay using Lumipulse (registered trademark) HBsAg-HQ (manufactured by Fujirebio Inc.). A relative viral load (%) with respect to a control without the compound added was each calculated. […]
# [3] = Hepatitis B virus, read-out: IC50 HBV-DNA
# [4] = Hepatitis B virus, read-out: IC50 HBsAg
# [5] = Hepatitis B virus, Hepatocyte, read-out: IC50 HBV-DNA
# [6] = Hepatitis B virus, Hepatocyte, read-out: IC50 HBsAg
compound,measurement,setting,value
"CO[C@@H]1CCN(c2ccc(-c3cc(=O)c(C(=O)O)cn3-c3ccc4nc(N5CC(OC(C)C)C5)sc4c3)cc2F)C1 [Example 23-7, (R)-6-(3-fluoro-4-(3-methoxypyrrolidin-1-yl)phenyl)-1-(2-(3-isopropoxyazetidin-1-yl)benzo[d]thiazol-6-yl)-4-oxo-1,4-dihydropyridine-3-carboxylic acid]",IC50,HBV [1]; read-out: IC50 HBV-DNA,0.65 nM
same,IC50,HBV [1]; read-out: IC50 HBsAg,1.1 nM
"Cc1nc2ccc(-n3cc(C(=O)O)c(=O)cc3-c3ccc(N4CCCC4)c(Br)c3)cc2s1 [Example 5-1, 6-(3-bromo-4-(pyrrolidin-1-yl)phenyl)-1-(2-methylbenzo[d]thiazol-6-yl)-4-oxo-1,4-dihydropyridine-3-carboxylic acid]",IC50,HBV [2]; [3],3.7 nM
same,IC50,HBV [2]; [4],6.4 nM
same,IC50,HBV (genotype AeUS); [5],200 nM
same,IC50,HBV (genotype AeUS); [6],150 nM
"O=C(O)c1cn(-c2ccc3ncsc3c2)c(-c2ccc(N3CCCC3)cc2)cc1=O [Example 3-1, 1-(benzo[d]thiazol-6-yl)-4-oxo-6-(4-(pyrrolidin-1-yl)phenyl)-1,4-dihydropyridine-3-carboxylic acid]",IC50,HBV [2]; [3],27 nM
same,IC50,HBV [2]; [4],21 nM
same,IC50,HBV (genotype AeUS); [5],230 nM
same,IC50,HBV (genotype AeUS); [6],540 nM
"COCCO[C@@H]1CCN(c2ccc(-c3cc(=O)c(C(=O)O)cn3-c3ccc4nc(C)sc4c3)cc2)C1 [Example 9, (R)-6-(4-(3-(2-Methoxyethoxy)pyrrolidin-1-yl)phenyl)-1-(2-methylbenzo[d]thiazol-6-yl)-4-oxo-1,4-dihydropyridine-3-carboxylic acid]",IC50,HBV [2]; [3],55 nM
same,IC50,HBV [2]; [4],24 nM
same,IC50,HBV (genotype AeUS); [5],580 nM
same,IC50,HBV (genotype AeUS); [6],330 nM
"O=C(O)c1cn(-c2ccc3nc(N4CCCC4)sc3c2)c(-c2ccc(N3CCCC3)cc2)cc1=O [Example 3-3, 4-oxo-1-(2-(pyrrolidin-1-yl)benzo[d]thiazol-6-yl)-6-(4-(pyrrolidin-1-yl)phenyl)-1,4-dihydropyridine-3-carboxylic acid]",IC50,HBV [2]; [3],2 nM
same,IC50,HBV [2]; [4],5 nM
same,IC50,HBV (genotype AeUS); [5],52 nM
same,IC50,HBV (genotype AeUS); [6],77 nM
"1-(2-morpholinebenzo[d]thiazol-6-yl)-4-oxo-6-(4-(pyrrolidin-1-yl)phenyl)-1,4-dihydropyridine-3-carboxylic acid [Example 3-4]",IC50,HBV [2]; read-out: IC50 HBV-DNA,5.5 nM
same,IC50,HBV [2]; read-out: IC50 HBsAg,5.9 nM
same,IC50,HBV (genotype AeUS); read-out: IC50 HBV-DNA,22 nM
same,IC50,HBV (genotype AeUS); read-out: IC50 HBsAg,14 nM
"COC[C@H]1CCCN1c1nc2ccc(-n3cc(C(=O)O)c(=O)cc3-c3ccc(N4CCCC4)cc3)cc2s1 [Example 3-10, (R)-1-(2-(2-(methoxymethyl)pyrrolidin-1-yl)benzo[d]thiazol-6-yl)-4-oxo-6-(4-(pyrrolidin-1-yl)phenyl)-1,4-dihydropyridine-3-carboxylic acid]",IC50,HBV [2]; [3],2.8 nM
same,IC50,HBV [2]; [4],1.3 nM
same,IC50,HBV (genotype AeUS); [5],15 nM
same,IC50,HBV (genotype AeUS); [6],39 nM
"O=C(O)c1cn(-c2ccc3nc(NCc4ncccn4)sc3c2)c(-c2ccc(N3CCCC3)cc2)cc1=O [Example 3-13, 4-oxo-1-(2-((pyrimidin-2-ylmethyl)amino)benzo[d]thiazol-6-yl)-6-(4-(pyrrolidin-1-yl)phenyl)-1,4-dihydropyridine-3-carboxylic acid]",IC50,HBV [2]; [3],3.9 nM
same,IC50,HBV [2]; [4],5.1 nM
same,IC50,HBV (genotype AeUS); [5],< 8 nM
same,IC50,HBV (genotype AeUS); [6],39 nM
"Cc1nc2ccc(-n3cc(C(=O)O)c(=O)cc3-c3ccc(N4CCCC4)c(C#N)c3)cc2s1 [Example 16, 6-(3-Cyano-4-(pyrrolidin-1-yl)phenyl)-1-(2-methylbenzo[d]thiazol-6-yl)-4-oxo-1,4-dihydropyridine-3-carboxylic acid]",IC50,HBV [2]; [3],18 nM
same,IC50,HBV [2]; [4],15 nM
same,IC50,HBV (genotype AeUS); [5],470 nM
same,IC50,HBV (genotype AeUS); [6],190 nM
"CO[C@@H]1CCN(c2ccc(-c3cc(=O)c(C(=O)O)cn3-c3ccc4nc(N5CCOCC5)sc4c3)cc2Cl)C1 [Example 11, (R)-6-(3-Chloro-4-(3-methoxypyrrolidin-1-yl)phenyl)-1-(2-morpholinobenzo[d]thiazol-6-yl)-4-oxo-,4-dihydropyridine-3-carboxylic acid]",IC50,HBV [2]; [3],13 nM
same,IC50,HBV [2]; [4],4.9 nM
same,IC50,HBV (genotype AeUS); [5],28 nM
same,IC50,HBV (genotype AeUS); [6],82 nM
"Cc1nc2ccc(-n3cc(C(=O)O)c(=O)cc3-c3ccc(N4CCCC4)cc3)cc2s1 [Example 3-2, 1-(2-methylbenzo[d]thiazol-6-yl)-4-oxo-6-(4-(pyrrolidin-1-yl)phenyl)-1,4-dihydropyridine-3-carboxylic acid]",IC50,HBV [2]; [3],9 nM
same,IC50,HBV [2]; [4],3.1 nM
same,IC50,HBV (genotype AeUS); [5],470 nM
same,IC50,HBV (genotype AeUS); [6],150 nM
"O=C(O)c1cn(-c2ccc3nc(N4CCOCC4)sc3c2)c(-c2ccc(N3CCCC3)c(F)c2)cc1=O [Example 7, 6-(3-Fluoro-4-(pyrrolidin-1-yl)phenyl)-1-(2-morpholinobenzo[d]thiazol-6-yl)-4-oxo-1,4-dihydropyridine-3-carboxylic acid]",IC50,HBV [2]; [3],1.4 nM
same,IC50,HBV [2]; [4],3.1 nM
same,IC50,HBV (genotype AeUS); [5],12 nM
same,IC50,HBV (genotype AeUS); [6],41 nM
